The text below walks through data of patent publication US5874445A, “(+) -α- (2,3-dimethoxyphenyl)-1-(2-(4-fluorephenyl) ethyl)-4-piepridinemethanol” (Merrell Pharmaceutical, Inc., priority 1997, dated 1999).

In one data set the target is T1, 5HT2 receptor (Mus musculus, UniProt P35363).
T1 construct: The administration of 5-methoxy-N,N-dimethyltryptamine 5-MeO-DMT to mice typically produces a characteristic head twitch in the mice; from tissue; host or cells: living mice (in vivo, endogenous receptor)
As to the kind of experiment: (5-MeO-DMT) head twitch test. In kind it is in vivo, mice. The following applies: ip, read-out: ED50 FOR ABOLITION OF HEAD TWITCH. The procedure:
Psychopharmacol., Vol. 3, pages 89-92, (1979). The administration of 5-methoxy-N,N-dimethyltryptamine 5-MeO-DMT to mice typically produces a characteristic head twitch in the mice. In this test, the mice are administered 5-MeO-DMT and a test compound. An absence of head twitches in the mice is considered to be predictive of the ability of the test compound to antagonize the 5HT2 receptor in vivo.

The test system of data set [1] is preference for both alcohol and cocaine. The following applies: rodent model of drug abuse; Meert et al; cited from earlier work.
Another data set concerns coronary vessel. The following applies: patients with stable angina; Golino et al, NEJM 1991; 324:641-648; cited from earlier work.
In the next data set the test system is thrombus formation. The following applies: canine models; Bush et al., Drug Development Research, Vol. 7, 319-340 (1986); cited from earlier work.
The test system of the next data set is coronary vessels. The following applies: patients with stable angina, intracoronary infusion, McFadden et al, cited from earlier work.
[2] abbreviates: mice, 5-MeO-DMT induced head twitch.

Like-named read-outs stand apart in the source and are kept apart here.

T1 sequence (P35363 whole entry): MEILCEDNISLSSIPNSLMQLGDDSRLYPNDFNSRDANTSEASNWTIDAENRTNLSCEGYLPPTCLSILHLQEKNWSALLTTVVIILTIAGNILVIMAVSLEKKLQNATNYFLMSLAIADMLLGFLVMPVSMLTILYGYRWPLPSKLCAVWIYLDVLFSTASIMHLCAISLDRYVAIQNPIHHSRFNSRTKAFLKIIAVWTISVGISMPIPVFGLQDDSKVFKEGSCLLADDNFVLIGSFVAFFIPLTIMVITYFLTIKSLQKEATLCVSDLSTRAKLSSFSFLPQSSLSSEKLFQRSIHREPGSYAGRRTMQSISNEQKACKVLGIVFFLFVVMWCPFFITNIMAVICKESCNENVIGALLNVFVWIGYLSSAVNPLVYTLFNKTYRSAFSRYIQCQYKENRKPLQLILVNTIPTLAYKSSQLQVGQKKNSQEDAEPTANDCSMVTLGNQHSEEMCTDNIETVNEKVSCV

Regarding `OC(c1ccccc1)C1CCN(CCc2ccccc2)CC1` (single isomer, unassigned) [Compound B (+)-isomer, α-phenyl-1-(2-phenylethyl)-4-piperidinemethanol], the ED50 on 5HT2 receptor (setting [2]) turned out to be 0.87 mg/kg.

Regarding `COc1cccc(C(O)C2CCN(CCc3ccccc3)CC2)c1OC` (racemic) [Compound C racemic, α-(2,3-dimethoxyphenyl)-1-(2-phenylethyl)-4-piperidinemethanol], the ED50 at 5HT2 receptor is 2.04 mg/kg. For `Cc1nc2sccn2c(=O)c1CCN1CCC(=C(c2ccc(F)cc2)c2ccc(F)cc2)CC1` [ritanserin], in data set [1], the “preference for both alcohol and cocaine” value is “abolished the preference for both alcohol and cocaine”. For the compound `O=C(c1ccc(F)cc1)C1CCN(CCn2c(=O)[nH]c3ccccc3c2=O)CC1` [Ketanserin], in the data set with coronary vessel, the coronary vessel constriction result was “blocked coronary vessel constriction in patients with stable angina”. Further, the preventing thrombus formation entry in the data set with thrombus formation was “extremely effective in preventing thrombus formation”. Take `COc1cccc(C(O)C2CCN(CCc3ccc(F)cc3)CC2)c1OC` (single isomer, unassigned) [Invention, (+)-α-(2,3-dimethoxyphenyl)-1-[2-(4-fluorophenyl)ethyl]-4-piperidinemethanol]: the ED50 at 5HT2 receptor was 0.03 mg/kg. As to `OC(c1ccccc1)C1CCN(CCc2ccccc2)CC1` (racemic) [Compound B racemic, α-phenyl-1-(2-phenylethyl)-4-piperidinemethanol], the ED50 at 5HT2 receptor (setting [2]) was determined as 3.28 mg/kg. As to `NCCc1c[nH]c2ccc(O)cc12` [serotonin], the “anginal attacks during infusions” value with coronary vessels is recorded as “experienced anginal attacks during these infusions”. Besides, the “constriction of the coronary vessels” value in the data set with coronary vessels (all concentrations tested, NEJM 1991, 324:648-654) was “induced constriction of the coronary vessels in these patients at all concentrations tested”.

One may read the ED50 as the midpoint of the dose-response relation.
